Patent publication US12559496B2, “Imidazopyrimidines as modulators of IL-17” (Janssen Pharmaceutica NV, priority 2020, dated 2026)

How the values were obtained:
[1] = molecular target: IL-17A(FLAG-Tagged): IL-17RA(His-Tagged) (Homo sapiens, UniProt Q16552, K93Q); experiment: IL-17A(FLAG-Tagged): IL-17RA(His-Tagged) Binding Disruption Eu-HTRF Assay; details: disruption of IL-17A/IL-17RA binding; simple average if tested more than once
Excerpt: IL-17A(FLAG-Tagged): IL-17RA(His-Tagged) Binding Disruption Eu-HTRF Assay
An antibody directed against the FLAG tag of IL-17A (SEQ ID NO: 1) is labeled with the HTRF donor chromophore (Europium-cryptate). IL-17A is present as a dimer that is “locked into” this quaternary structure due to the formation of loop-spanning […] disulfide bridges. The construct of IL-17RA used in the assay excludes the […] portion of the receptor and is fused to a C-terminal 10×His tag (SEQ ID NO:2). An antibody directed against the His tag of the IL-17RA chimera is labeled with the HTRF acceptor chromophore (“D2”). The fluorescence-resonance energy transfer (FRET) depends on the vicinity of the donor chromophore to the acceptor, and interruption of the binding between the IL-17A and IL-17RA causes the reduction/loss of FRET. Therefore, this assay allows to evaluate the compound effect on the binding IL-17A and IL-17RA by monitoring the fluorescence intensity of donor vs acceptor. The assay is run as described below.
40 nL of 2-fold serial diluted compound solution for total 22 dilution points is added into each well of a 1536-well, white, low-volume, non-binding plate (Greiner #782904), then 2 μL of FLAG tagged IL-17A at 2× final concentration (2.5 nM) in solution of PBS+0.01% Triton-X100 is added to each well. The assay plate is briefly centrifuged then incubated for 1 h at rt. A mixed solution is prepared containing 2×5 nM 10HIS×IL-17RA, 2×2.5 nM Eu-anti-FLAG (CISBIO), 2×5 nM D2-anti-HIS (CISBIO) in PBS+0.01% Triton-X100+200 mM Potassium Fluoride (Sigma 60238) and 2 μL of mix is added to each well of the assay plate. The plate is briefly centrifuged then incubated for 2 h at rt. The HTRF intensities at the wavelength of donor (620 nm) and acceptor (665 nm) are measured using BMG Pherastar. The ratio between intensities at two wavelengths is calculated and plotted against the compound concentration and the data is fitted to a one-site competition model to yield IC50 of the compound.

[2] = tested on: IL-17A-induced G-CSF production in human normal keratinocytes (NHK); experiment: NHK Assay: IL-17A-induced G-CSF production in human normal keratinocytes; format: cell-based; details: 24 h, IL-17A 5 ng/mL, 5% FBS, simple average if tested more than once
Method: IL-17A acts directly on keratinocytes through binding to dimeric receptor IL-17RA/RC and drives the production of a number of inflammatory mediators known to be elevated in psoriasis lesional tissue. IL-17A small molecule inhibitors that block the IL-17A to interact with IL-17R would inhibit the IL-17A signaling in its targeted cells such as keratinocytes. The compound functional activity is evaluated for its impact on IL-17A-induced G-CSF production in human normal keratinocytes (NHK).
Adult normal human keratinocytes are cultured in keratinocyte growth medium (Lonza) in a flask till reaching ˜ 90% confluence, then cells are transferred to a 384-well plate at density of 3000-4000 cell/well. Recombinant human IL-17A (Gibco PHC9174) is pre-incubated with titrated compound or DMSO for 1 h at rt then added to the cell culture plate. The final concentration of IL-17A is 5 ng/mL and DMSO is 0.2%, in the culture containing 5% FBS. Cells are cultured/treated for 24 h at 37° C. Supernatants are collected and G-CSF production is measured through HTRF technology using Human G-CSF Kit (CisBio). G-CSF concentration was extrapolated from the standard curve and IC50 is determined using GraphPad Prism. Cell viability is also evaluated using CellTiter-Glo kit (Promega) and effect of compound on cell viability is compared to DMSO control.

Sequence of UniProt Q16552 (Q16552 with tags, fused parts or gaps K93Q): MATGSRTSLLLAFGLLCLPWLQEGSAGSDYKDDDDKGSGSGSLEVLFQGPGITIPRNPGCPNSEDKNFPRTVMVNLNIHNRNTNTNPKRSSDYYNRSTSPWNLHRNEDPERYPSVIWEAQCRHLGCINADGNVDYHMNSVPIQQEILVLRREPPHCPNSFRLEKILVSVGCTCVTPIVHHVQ

IC50 [1]	Compound	IC50 ([2]; Homo sapiens, Keratinocyte)	IC50 [2]
12 µM	O=C(CC1CC(F)(F)C1)N[C@H](c1ccn2cc([C@@H](NC(=O)c3ncnn3CC3CC3)C3CCC(F)(F)CC3)nc2n1)C1CC1 [Example 16, N—((S)-(7-((S)-Cyclopropyl(2-(3,3-difluorocyclobutyl)acetamido)methyl)imidazo[1,2-a]pyrimidin-2-yl)(4,4-difluorocyclohexyl)methyl)-1-(cyclopropylmethyl)-1H-1,2,4-triazole-5-carboxamide]	> 20 µM	–
0.18 µM	O=C(CC1CC(F)(F)C1)N[C@@H](c1ccn2cc([C@@H](NC(=O)c3conc3C3CC3)C3CCC(F)(F)CC3)nc2n1)C1CC1 [Example 24, 3-Cyclopropyl-N—((S)-(7-((R)-cyclopropyl(2-(3,3-difluorocyclobutyl)acetamido)methyl)imidazo[1,2-a]pyrimidin-2-yl)(4,4-difluorocyclohexyl)methyl)isoxazole-4-carboxamide]	0.18 µM	–
0.13 µM	O=C(CC1CC(F)(F)C1)N[C@@H](c1ccn2cc([C@@H](NC(=O)c3conc3CCC(F)(F)F)C3CCC(F)(F)CC3)nc2n1)C1CC1 [Example 26, N—((S)-(7-((R)-Cyclopropyl(2-(3,3-difluorocyclobutyl)acetamido)methyl)imidazo[1,2-a]pyrimidin-2-yl)(4,4-difluorocyclohexyl)methyl)-3-(3,3,3-trifluoropropyl)isoxazole-4-carboxamide]	0.11 µM	–
2.7 µM	CC(CC(=O)N[C@@H](c1ccn2cc([C@@H](NC(=O)[C@H]3C[C@@H]3C(F)(F)F)C3CCC(F)(F)CC3)nc2n1)C1CC1)C(F)(F)F (single isomer, unassigned) [Example 6]	2.1 µM	–
0.52 µM	CC(CC(=O)N[C@H](c1ccn2cc([C@@H](NC(=O)c3conc3CCC(F)(F)F)C3CCC(F)(F)CC3)nc2n1)C1CC1)C(F)(F)F (single isomer, unassigned) [Example 7, N—((S)-(7-((S)-Cyclopropyl((S*)-4,4,4-trifluoro-3-methylbutanamido)methyl)imidazo[1,2-a]pyrimidin-2-yl)(4,4-difluorocyclohexyl)methyl)-3-(3,3,3-trifluoropropyl)isoxazole-4-carboxamide]	–	0.88 µM
0.31 µM	O=C(CCC(F)(F)F)NC(c1ccn2cc([C@@H](NC(=O)c3cnn(CCC(F)(F)F)n3)C3CCC(F)(F)CC3)nc2n1)C1CC1 (single isomer, unassigned) [Example 40, N—((S)-(7-((S*)-Cyclopropyl(4,4,4-trifluorobutanamido)methyl)imidazo[1,2-a]pyrimidin-2-yl)(4,4-difluorocyclohexyl)methyl)-2-(3,3,3-trifluoropropyl)-2H-1,2,3-triazole-4-carboxamide]	–	0.36 µM
1.8 µM	CC(CC(=O)N[C@H](c1ccn2cc([C@@H](NC(=O)c3conc3C3CC3)C3CCC(F)(F)CC3)nc2n1)C1CC1)C(F)(F)F (single isomer, unassigned) [Example 9, 3-Cyclopropyl-N—((S)-(7-((S)-cyclopropyl((S*)-4,4,4-trifluoro-3-methylbutanamido)methyl)imidazo[1,2-a]pyrimidin-2-yl)(4,4-difluorocyclohexyl)methyl)isoxazole-4-carboxamide]	–	0.61 µM
0.16 µM	O=C(CCC(F)(F)F)N[C@@H](c1ccn2cc([C@@H](NC(=O)c3ccnc(CC(F)(F)F)c3)C3CCC(F)(F)CC3)nc2n1)C1CC1 [Example 48, N—((S)-(7-((R)-Cyclopropyl(4,4,4-trifluorobutanamido)methyl)imidazo[1,2-a]pyrimidin-2-yl)(4,4-difluorocyclohexyl)methyl)-2-(2,2,2-trifluoroethyl)isonicotinamide]	0.17 µM	–
0.5 µM	O=C(CCC(F)(F)F)NC(c1ccn2cc([C@@H](NC(=O)c3cnn(CCC(F)(F)F)c3)C3CCC(F)(F)CC3)nc2n1)C1CC1 (single isomer, unassigned) [Example 49, N—((S)-(7-((S*)-Cyclopropyl(4,4,4-trifluorobutanamido)methyl)imidazo[1,2-a]pyrimidin-2-yl)(4,4-difluorocyclohexyl)methyl)-1-(3,3,3-trifluoropropyl)-1H-pyrazole-4-carboxamide]	0.74 µM	–
5.7 µM	O=C(CCC(F)(F)F)NC(c1ccn2cc([C@@H](NC(=O)c3ccn(CCC(F)(F)F)n3)C3CCC(F)(F)CC3)nc2n1)C1CC1 (single isomer, unassigned) [Example 43, N—((S)-(7-((R*)-Cyclopropyl(4,4,4-trifluorobutanamido)methyl)imidazo[1,2-a]pyrimidin-2-yl)(4,4-difluorocyclohexyl)methyl)-1-(3,3,3-trifluoropropyl)-1H-pyrazole-3-carboxamide]	–	~20 µM
0.46 µM	Cc1nonc1C(=O)N[C@H](c1cn2ccc([C@H](NC(=O)C[C@H]3C[C@H](F)C3)C3CC3)nc2n1)C1CCC(F)(F)CC1 [Example 61, N—((S)-(7-((R)-Cyclopropyl(2-((1r,3S)-3-fluorocyclobutyl)acetamido)methyl)imidazo[1,2-a]pyrimidin-2-yl)(4,4-difluorocyclohexyl)methyl)-4-methyl-1,2,5-oxadiazole-3-carboxamide]	2.3 µM	–
0.22 µM	O=C(CC1CC1(F)F)N[C@@H](c1ccn2cc([C@@H](NC(=O)c3conc3C(F)(F)F)C3CCC(F)(F)CC3)nc2n1)C1CC1 (single isomer, unassigned) [Example 57, N—((S)-(7-((R)-Cyclopropyl(2-((S*)-2,2-difluorocyclopropyl)acetamido)methyl)imidazo[1,2-a]pyrimidin-2-yl)(4,4-difluorocyclohexyl)methyl)-3-(trifluoromethyl)isoxazole-4-carboxamide]	–	0.93 µM
0.091 µM	O=C(CC1CC(F)(F)C1)N[C@@H](c1ccn2cc([C@@H](NC(=O)c3nonc3C3CC3)C3CCC(F)(F)CC3)nc2n1)C1CC1 [Example 62, 4-Cyclopropyl-N—((S)-(7-((R)-cyclopropyl(2-(3,3-difluorocyclobutyl)acetamido)methyl)imidazo[1,2-a]pyrimidin-2-yl)(4,4-difluorocyclohexyl)methyl)-1,2,5-oxadiazole-3-carboxamide]	0.12 µM	–
2.4 µM	O=C(CCC(F)(F)F)NC(c1ccn2cc([C@@H](NC(=O)c3cnn(CCC(F)(F)F)n3)C3CCC(F)(F)CC3)nc2n1)C1CC1 (single isomer, unassigned) [Example 41, N—((S)-(7-((R*)-Cyclopropyl(4,4,4-trifluorobutanamido)methyl)imidazo[1,2-a]pyrimidin-2-yl)(4,4-difluorocyclohexyl)methyl)-2-(3,3,3-trifluoropropyl)-2H-1,2,3-triazole-4-carboxamide]	–	2.5 µM
3.1 µM	CC(CC(=O)N[C@H](c1ccn2cc([C@@H](NC(=O)c3ccnc(CC(F)(F)F)c3)C3CCC(F)(F)CC3)nc2n1)C1CC1)C(F)(F)F (single isomer, unassigned) [Example 3, N—((S)-(7-((S)-Cyclopropyl((R*)-4,4,4-trifluoro-3-methylbutanamido)methyl)imidazo[1,2-a]pyrimidin-2-yl)(4,4-difluorocyclohexyl)methyl)-2-(2,2,2-trifluoroethyl)isonicotinamide]	0.64 µM	–
